Assay results taken from patent US10669268B2, “Bicyclic derivatives” (Hoffmann-La Roche Inc., priority 2012, dated 2020).

Biological target: ATX (human His-tagged) (Homo sapiens (Human), UniProt Q13822)
Experiment: Human ATX enzyme inhibition assay (fluorescence quenching, MR121 substrate)
Format: biochemical
Conditions: 30 nM ATX, 1 μM MR121 substrate, 30° C., pH 8.0
How it was run: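 Fluorescence-quenching assay using MR121 substrate at 1 μM final, incubated 15 min at 30 °C. Buffer was 50 mM Tris-HCl pH 8.0 with 140 mM NaCl, 5 mM KCl, 1 mM CaCl2, 1 mM MgCl2 and 0.01% Triton X-100.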

## CC(C)c1cc(C#N)ccc1OCC(=O)N1C[C@@H]2CN(C(=O)c3ccc4[nH]nnc4c3)C[C@H]2C1 [Example 19.03, 4-{2-[(3aS,6aS)-5-(1H-benzotriazole-5-carbonyl)-hexahydro-pyrrolo[3,4-c]pyrrol-2-yl]-2-oxo-ethoxy}-3-isopropyl-benzonitrile]
  IC50: 8 nM

## O=C(OCc1cccc(C(O)C(F)(F)F)c1)N1C[C@@H]2CN(C(=O)c3ccc4[nH]nnc4c3)C[C@@H]2C1 (stereo partly drawn) [Example 4.21, cis-5-(1H-benzotriazole-5-carbonyl)-hexahydro-pyrrolo[3,4-c]pyrrole-2-carboxylic acid 3-(2,2,2-trifluoro-1-hydroxy-ethyl)-benzyl ester]
  IC50: 3480 nM

## CCOc1cc(C(=O)N2C[C@@H]3CN(C(=O)c4ccc5[nH]nnc5c4F)C[C@H]3C2)nc2ccccc12 [Example 1.61, (4-ethoxyquinolin-2-yl)((3aS,6aS)-5-(4-fluoro-1H-benzo[d][1,2,3]triazole-5-carbonyl)hexahydropyrrolo[3,4-c]pyrrol-2(1H)-yl)methanone]
  IC50: 21 nM

## O=C(/C=C/c1cccc(OC(F)(F)F)c1)N1CC[C@@H]2CN(C(=O)c3ccc4[nH]nnc4c3)C[C@@H]2CC1 [Example 15.72]
  IC50: 15 nM

## O=C(/C=C/c1cccc(OC(F)(F)F)c1)N1C[C@H]2CCN(C(=O)c3ccc4[nH]nnc4c3)C[C@@H]2C1 [Example 15.73]
  IC50: 116 nM

## CC(C)(C)c1cc(Br)ccc1OCC(=O)N1C[C@@H]2CN(C(=O)[C@@H]3CCc4[nH]nnc4C3)C[C@H]2C1 [Example 19.29, 1-[(3aS,6aS)-5-[(5R)-4,5,6,7-tetrahydro-1H-benzotriazole-5-carbonyl]-1,3,3a,4,6,6a-hexahydropyrrolo[3,4-c]pyrrol-2-yl]-2-(4-bromo-2-tert-butylphenoxy)ethanone]
  IC50: 1 nM

## O=C(COc1ccccc1)N1C[C@@H]2CN(C(=O)c3ccc4[nH]nnc4c3)C[C@H]2C1 [Example 15.95]
  IC50: 1900 nM

## CC(C)(Cc1cccc(Cl)c1)C(=O)N1CC[C@@H]2CN(C(=O)c3ccc4[nH]nnc4c3)C[C@@H]2CC1 [Example 1.14, 1-((3aR,8aS)-2-(1H-benzo[d][1,2,3]triazole-5-carbonyl)octahydropyrrolo[3,4-d]azepin-6(7H)-yl)-3-(3-chlorophenyl)-2,2-dimethylpropan-1-one]
  IC50: 810 nM

## O=C(OCC12CC3CC(CC(C3)C1)C2)N1C[C@@H]2CN(C(=O)c3ccc4[nH]nnc4c3)C[C@@H]2C1 [Example 4.18, (3aS,6aR)-5-(1H-benzotriazole-5-carbonyl)-hexahydro-pyrrolo[3,4-c]pyrrole-2-carboxylic acid adamantan-1-ylmethyl ester]
  IC50: 5620 nM

## O=C(CCc1ccc(OCC(F)(F)F)cc1F)N1CC[C@@H]2CN(C(=O)c3ccc4[nH]nnc4c3)C[C@@H]2CC1 [Example 1.45, 1-[(3aS,8aR)-2-(1H-benzotriazole-5-carbonyl)-1,3,3a,4,5,7,8,8a-octahydropyrrolo[3,4-d]azepin-6-yl]-3-[2-fluoro-4-(2,2,2-trifluoroethoxy)phenyl]propan-1-one]
  IC50: 7 nM

## CCOc1cc(Cl)c(F)cc1COC(=O)N1C[C@@H]2CN(C(=O)c3ccc4[nH]nnc4c3)C[C@H]2C1 [Example 4.67, (3aS,6aS)-5-(1H-benzotriazole-5-carbonyl)-hexahydro-pyrrolo[3,4-c]pyrrole-2-carboxylic acid 4-chloro-2-ethoxy-5-fluoro-benzyl ester]
  IC50: 8 nM

## O=C(OCc1cc(Cl)cc(Cl)c1)N1C[C@H]2CN(Cc3ccc4[nH]ncc4c3)C[C@H]2C1 [Example 6.02]
  IC50: 2810 nM

## O=C(OCc1cccc(OC(F)(F)F)c1)N1C[C@@H]2CN(C(=O)c3ccc4[nH]nnc4c3)C[C@@H]2C1 [Example 4.25, (3aS,6aR)-5-(1H-benzotriazole-5-carbonyl)-hexahydro-pyrrolo[3,4-c]pyrrole-2-carboxylic acid 3-trifluoromethoxy-benzyl ester]
  IC50: 122 nM

## O=C(OCc1ccc(OC(F)(F)F)cc1)N1C[C@@H]2CN(C(=O)c3ccc4[nH]nnc4c3F)C[C@H]2C1 [Example 1.52, (3aS,6aS)-5-(4-fluoro-1H-benzotriazole-5-carbonyl)-hexahydro-pyrrolo[3,4-c]pyrrole-2-carboxylic acid 4-trifluoromethoxy-benzyl ester]
  IC50: 16 nM

## CS(=O)(=O)c1cc(COC(=O)N2C[C@H]3CCN(C(=O)c4ccc5[nH]nnc5c4)C[C@@H]3C2)cc(C(F)(F)F)c1 (relative stereo) [Example 4.01, trans-5-(1H-benzotriazole-5-carbonyl)-octahydro-pyrrolo[3,4-c]pyridine-2-carboxylic acid 3-methanesulfonyl-5-trifluoromethyl-benzyl ester]
  IC50: 41 nM

## CC(C)(Cc1cccc(Cl)c1)C(=O)N1CC[C@@H]2CN(C(=O)NCc3cnn[nH]3)C[C@@H]2CC1 [Example 9.08]
  IC50: 3400 nM

## COc1cc(Cl)cc(COC(=O)N2C[C@@H]3CN(C(=O)c4ccc5[nH]nnc5c4)C[C@@H]3C2)c1 [Example 4.30, (3aR,6aS)-3-chloro-5-methoxybenzyl 5-(1H-benzo[d][1,2,3]triazole-5-carbonyl)hexahydropyrrolo[3,4-c]pyrrole-2(1H)-carboxylate]
  IC50: 50 nM

## O=C(c1ccc2[nH]nnc2c1)N1C[C@@H]2CN(S(=O)(=O)CCc3cccc(Cl)c3)C[C@@H]2C1 [Example 1.12, (1H-benzotriazol-5-yl)-{(3aS,6aR)-5-[2-(3-chloro-phenyl)-ethanesulfonyl]-hexahydro-pyrrolo[3,4-c]pyrrol-2-yl}-methanone]
  IC50: 9260 nM

## O=C(c1ccc2[nH]nnc2c1)N1C[C@H]2CN(C(=O)N3CCC(c4ccc(Cl)cc4)CC3)C[C@@H]2C1 [Example 20, (1H-Benzotriazol-5-yl)-{(3aS,6aS)-5-[4-(4-chloro-phenyl)-piperidine-1-carbonyl]-hexahydro-pyrrolo[3,4-c]pyrrol-2-yl}-methanone]
  IC50: 29 nM

## CC(C)(C)c1cc(C#N)ccc1OCC(=O)N1C[C@@H]2CN(C(=O)[C@@H]3CCc4[nH]nnc4C3)C[C@H]2C1 [Example 19.31, 4-[2-[(3aS,6aS)-5-[(5R)-4,5,6,7-tetrahydro-1H-benzotriazole-5-carbonyl]-1,3,3a,4,6,6a-hexahydropyrrolo[3,4-c]pyrrol-2-yl]-2-oxoethoxy]-3-tert-butylbenzonitrile]
  IC50: 2 nM

## Cc1cc(OCC(=O)N2C[C@@H]3CN(C(=O)[C@@H]4CCc5[nH]nnc5C4)C[C@H]3C2)c(C(C)C)cc1C#N [Example 19.27, 4-[2-[(3aS,6aS)-5-[(5R)-4,5,6,7-tetrahydro-1H-benzotriazole-5-carbonyl]-1,3,3a,4,6,6a-hexahydropyrrolo[3,4-c]pyrrol-2-yl]-2-oxoethoxy]-2-methyl-5-propan-2-ylbenzonitrile]
  IC50: 6 nM

## O=C(/C=C/c1cc(Cl)cc(Cl)c1)N1C[C@H]2CCN(C(=O)c3ccc4[nH]nnc4c3)C[C@@H]2C1 [Example 15.76]
  IC50: 13 nM

## O=C(/C=C/c1ccc(OC(F)(F)F)cc1)N1C[C@@H]2CN(C(=O)NCc3c[nH]nn3)C[C@@H]2C1 [Example 9.02]
  IC50: 1600 nM

## O=C(c1cnc(OCC(F)(F)F)c(C(F)(F)F)c1)N1C[C@@H]2CN(C(=O)c3ccc4[nH]nnc4c3)C[C@H]2C1 [Example 19.43, ((3aS,6aS)-5-(1H-benzo[d][1,2,3]triazole-5-carbonyl)hexahydropyrrolo[3,4-c]pyrrol-2(1H)-yl)(6-(2,2,2-trifluoroethoxy)-5-(trifluoromethyl)pyridin-3-yl)methanone]
  IC50: 14 nM

## Cc1cc(OCC(=O)N2C[C@@H]3CN(C(=O)c4ccc5[nH]nnc5c4)C[C@H]3C2)c(C(C)C)cc1C#N [Example 19.05, 4-{2-[(3aS,6aS)-5-(1H-benzotriazole-5-carbonyl)-hexahydro-pyrrolo[3,4-c]pyrrol-2-yl]-2-oxo-ethoxy}-5-isopropyl-2-methyl-benzonitrile]
  IC50: 5 nM

## NS(=O)(=O)C1CCN(C(=O)N2C[C@H]3CN(C(=O)OCc4ccc(OC(F)(F)F)cc4)C[C@@H]3C2)CC1 [Example 9.10]
  IC50: 7 nM

## CCOc1cc(C(=O)N2C[C@@H]3CN(C(=O)c4ccc5[nH]nnc5c4)C[C@H]3C2)nc2ccccc12 [Example 19.37, ((3aS,6aS)-5-(1H-benzo[d][1,2,3]triazole-5-carbonyl)hexahydropyrrolo[3,4-c]pyrrol-2(1H)-yl)(4-ethoxyquinolin-2-yl)methanone]
  IC50: 15 nM

## O=C(c1cnc(OCC2CC2)c(Br)c1)N1C[C@@H]2CN(C(=O)c3ccc4[nH]nnc4c3)C[C@H]2C1 [Example 19.41, ((3aS,6aS)-5-(1H-benzo[d][1,2,3]triazole-5-carbonyl)hexahydropyrrolo[3,4-c]pyrrol-2(1H)-yl)(5-bromo-6-(cyclopropylmethoxy)pyridin-3-yl)methanone]
  IC50: 685 nM

## O=C(c1ccc(-c2ccc(Cl)cc2)cc1)N1C[C@H]2CN(C(=O)c3ccc4[nH]nnc4c3)C[C@@H]2C1 (stereo in doubt) [Example 19.13, (1H-benzotriazol-5-yl)-[(3aS,6aS)-5-(4′-chloro-biphenyl-4-carbonyl)-hexahydro-pyrrolo[3,4-c]pyrrol-2-yl]-methanone]
  IC50: 10 nM

## O=C(/C=C/c1ccc(OC(F)F)cc1)N1C[C@H]2CCN(C(=O)c3ccc4[nH]nnc4c3)C[C@@H]2C1 (single isomer, unassigned) [Example 15.32]
  IC50: 19 nM

## O=C(OCc1cc(Cl)cc(Cl)c1)N1C[C@@H]2CN(C(=O)c3ccc4[nH]c5ccccc5c4c3)C[C@@H]2C1 [Example 1.06, (3aR,6aS)-3,5-dichlorobenzyl 5-(9H-carbazole-3-carbonyl)hexahydropyrrolo[3,4-c]pyrrole-2(1H)-carboxylate]
  IC50: 255 nM

## O=C(CCc1ccc(C(F)(F)F)cc1)N1C[C@@H]2CN(C(=O)c3ccc4[nH]nnc4c3)C[C@H]2C1 [Example 15.59]
  IC50: 11 nM
